According to ChEMBL document CHEMBL1687695, “Thermodynamic and Structural Effects of Macrocyclization as a Constraining Method in Protein-Ligand Interactions” (ACS Med Chem Lett, 2010):
Numbered stars: 1 amine (or outer) side, 2 acyl side, 3 side chain; on linkers, the order of the positions; unused ones are H or OH. Square brackets hold non-standard residues; d marks the D form. Peptide text beside a SMILES is read from it. * marks the point of attachment. pY = N[C@@H](Cc1ccc(OP(=O)(O)O)cc1)C(=O)O; NH(CH2)9CO = O=C(CCCCCCCCCN[*:1])[*:2]; Nonanoyl = CCCCCCCCC(=O)*; Hexanoyl = CCCCCC(=O)*; Ahp = NCCCCCCC(=O)O

Experiment: Association constant Ka of the compound
Format: physicochemical

Q: For CCCCCC(=O)N[C@@H](Cc1ccc(OP(=O)(O)O)cc1)C(=O)N[C@H](C(=O)N[C@@H](CC(N)=O)C(=O)NCC(=O)NC)C(C)C (Hexanoyl-[pY]VNG-NHMe), which Ka is on record?
A: The Ka was 4.1 ×10⁵ /M.

Q: Which Ka does the source give for CCCCCC(=O)N[C@@H](Cc1ccc(OP(=O)(O)O)cc1)C(=O)N[C@H](C(=O)N[C@@H](CC(N)=O)C(=O)N[C@H](C(=O)NC)C(C)C)C(C)C (Hexanoyl-[pY]VNV-NHMe) here?
A: The Ka was 2.3 ×10⁶ /M.

Q: Which Ka does the source give for CCCCCC(=O)N[C@@H](Cc1ccc(OP(=O)(O)O)cc1)C(=O)N[C@H](C(=O)N[C@@H](CC(N)=O)C(=O)N[C@H](C(=O)N1CCC[C@H]1C(=O)NC)C(C)C)C(C)C (Hexanoyl-[pY]VNVP-NHMe) here?
A: Its Ka is 6.5 ×10⁶ /M.

Q: For CCCCCCCCC(=O)N[C@@H](Cc1ccc(OP(=O)(O)O)cc1)C(=O)N[C@H](C(=O)N[C@@H](CC(N)=O)C(=O)NCC(=O)NC)C(C)C (Nonanoyl-[pY]VNG-NHMe), which Ka is on record?
A: The Ka was 5.7 ×10⁵ /M.

Q: Which Ka does the source give for CC(C)[C@@H]1NC(=O)[C@H](Cc2ccc(OP(=O)(O)O)cc2)NC(=O)CCCCCCCCCNC(=O)CNC(=O)[C@H](CC(N)=O)NC1=O (cyclo(G[NH(CH2)9CO][pY]VN)) here?
A: The Ka was 8.5 ×10⁵ /M.

Q: With CC(C)[C@@H]1NC(=O)[C@H](Cc2ccc(OP(=O)(O)O)cc2)NC(=O)CCCCCCNC(=O)CNC(=O)[C@H](CC(N)=O)NC1=O (cyclo([Ahp][pY]VNG)) as the compound, how does the Ka read?
A: Its Ka is 4.7 ×10⁴ /M.

Q: For CC(C)[C@@H]1NC(=O)[C@H](CC(N)=O)NC(=O)[C@H](C(C)C)NC(=O)[C@H](Cc2ccc(OP(=O)(O)O)cc2)NC(=O)CCCCCCNC1=O (cyclo([Ahp][pY]VNV)), which Ka is on record?
A: The Ka was 2.3 ×10⁶ /M.

Q: For CC(C)[C@@H]1NC(=O)[C@H](Cc2ccc(OP(=O)(O)O)cc2)NC(=O)CCCCCCNC(=O)[C@@H]2CCCN2C(=O)[C@H](C(C)C)NC(=O)[C@H](CC(N)=O)NC1=O (cyclo([Ahp][pY]VNVP)), which Ka is on record?
A: Its Ka is 1 ×10⁷ /M.
